Source: PubChem BioAssay (NCI)
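GI50 is the concentration that inhibits growth by half. TGI marks complete inhibition of growth.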

Key:
Test in all cases: inhibition of tumour cell growth, NCI panel, 384-well format
[1] = tested on: 786-0 renal
[2] = tested on: A498 renal
[3] = tested on: A549 NSCLC
[4] = tested on: ACHN renal
[5] = tested on: BT-549 breast
[6] = tested on: CAKI-1 renal
[7] = tested on: CCRF-CEM leukemia
[8] = tested on: COLO 205 colon
[9] = tested on: DU-145 prostate
[10] = tested on: EKVX NSCLC
[11] = tested on: HCT-116 colon
[12] = tested on: HCT-15 colon
[13] = tested on: HL-60(TB) leukemia
[14] = tested on: HOP-62 NSCLC
[15] = tested on: HOP-92 NSCLC
[16] = tested on: HS 578T breast
[17] = tested on: HT29 colon
[18] = tested on: IGROV1 ovarian
[19] = tested on: K-562 leukemia
[20] = tested on: KM12 colon
[21] = tested on: LOX IMVI melanoma
[22] = tested on: M14 melanoma
[23] = tested on: MALME-3M melanoma
[24] = tested on: MCF7 breast
[25] = tested on: MDA-MB-231 breast
[26] = tested on: MDA-MB-435 melanoma
[27] = tested on: MDA-MB-468 breast
[28] = tested on: MOLT-4 leukemia
[29] = tested on: NCI-H226 lung
[30] = tested on: NCI-H23 lung
[31] = tested on: NCI-H322M lung
[32] = tested on: NCI-H460 NSCLC
[33] = tested on: NCI-H522 lung
[34] = tested on: NCI/ADR-RES ovarian
[35] = tested on: OVCAR-3 ovarian
[36] = tested on: OVCAR-4 ovarian
[37] = tested on: OVCAR-5 ovarian
[38] = tested on: PC-3 prostate
[39] = tested on: RPMI-8226 leukemia
[40] = tested on: RXF 393 renal
[41] = tested on: SF-268 CNS
[42] = tested on: SF-295 CNS
[43] = tested on: SF-539 CNS
[44] = tested on: SK-MEL-2 melanoma
[45] = tested on: SK-MEL-28 melanoma
[46] = tested on: SK-MEL-5 melanoma
[47] = tested on: SK-OV-3 ovarian
[48] = tested on: SN12C renal
[49] = tested on: SNB-19 CNS
[50] = tested on: SNB-75 CNS
[51] = tested on: SR leukemia
[52] = tested on: SW-620 colon
[53] = tested on: T-47D breast
[54] = tested on: TK-10 renal
[55] = tested on: U251 glioblastoma
[56] = tested on: UACC-257 melanoma
[57] = tested on: UACC-62 melanoma
[58] = tested on: UO-31 renal

**Q.** Which GI50 [1] does the source give for `C[C@@H](Oc1ccc(Oc2cnc3ccc(Cl)cc3n2)cc1)C(=O)O` here?
**A.** > 100 µM

**Q.** What about the TGI [1] of the same compound?
**A.** > 100 µM

**Q.** And the GI50 [2]?
**A.** 86.9 µM

**Q.** What about the TGI [2] of the same compound?
**A.** > 100 µM

**Q.** What about the GI50 [3] of the same compound?
**A.** 42.6 µM

**Q.** And the TGI [3]?
**A.** > 100 µM

**Q.** And the GI50 [4]?
**A.** 32.1 µM

**Q.** And the TGI [4]?
**A.** > 100 µM

**Q.** What about the GI50 [5] of the same compound?
**A.** 58.3 µM

**Q.** What about the TGI [5] of the same compound?
**A.** > 100 µM

**Q.** What about the GI50 [6] of the same compound?
**A.** 85.3 µM

**Q.** And the TGI [6]?
**A.** > 100 µM

**Q.** What about the GI50 [7] of the same compound?
**A.** 3.68 µM

**Q.** And the TGI [7]?
**A.** > 100 µM

**Q.** What about the GI50 [8] of the same compound?
**A.** 28.6 µM

**Q.** What about the TGI [8] of the same compound?
**A.** > 100 µM

**Q.** What about the GI50 [9] of the same compound?
**A.** 45.4 µM

**Q.** And the TGI [9]?
**A.** > 100 µM

**Q.** And the GI50 [10]?
**A.** > 100 µM

**Q.** What about the TGI [10] of the same compound?
**A.** > 100 µM

**Q.** And the GI50 [11]?
**A.** 77.4 µM

**Q.** What about the TGI [11] of the same compound?
**A.** > 100 µM

**Q.** And the GI50 [12]?
**A.** 73.7 µM

**Q.** And the TGI [12]?
**A.** > 100 µM

**Q.** And the GI50 [13]?
**A.** 4.5 µM

**Q.** And the TGI [13]?
**A.** 26.1 µM

**Q.** What about the GI50 [14] of the same compound?
**A.** 43.3 µM

**Q.** What about the TGI [14] of the same compound?
**A.** > 100 µM

**Q.** And the GI50 [15]?
**A.** 96.4 µM

**Q.** And the TGI [15]?
**A.** > 100 µM

**Q.** And the GI50 [16]?
**A.** > 100 µM

**Q.** What about the TGI [16] of the same compound?
**A.** > 100 µM

**Q.** And the GI50 [17]?
**A.** > 100 µM

**Q.** And the TGI [17]?
**A.** > 100 µM

**Q.** What about the GI50 [18] of the same compound?
**A.** 73.1 µM

**Q.** What about the TGI [18] of the same compound?
**A.** > 100 µM

**Q.** And the GI50 [19]?
**A.** 53.3 µM

**Q.** And the TGI [19]?
**A.** > 100 µM

**Q.** And the GI50 [20]?
**A.** > 100 µM

**Q.** And the TGI [20]?
**A.** > 100 µM

**Q.** What about the GI50 [21] of the same compound?
**A.** > 100 µM

**Q.** What about the TGI [21] of the same compound?
**A.** > 100 µM

**Q.** What about the GI50 [22] of the same compound?
**A.** > 100 µM

**Q.** And the TGI [22]?
**A.** > 100 µM

**Q.** And the GI50 [23]?
**A.** > 100 µM

**Q.** And the TGI [23]?
**A.** > 100 µM

**Q.** And the GI50 [24]?
**A.** 22.5 µM

**Q.** And the TGI [24]?
**A.** > 100 µM

**Q.** And the GI50 [25]?
**A.** > 100 µM

**Q.** And the TGI [25]?
**A.** > 100 µM

**Q.** And the GI50 [26]?
**A.** > 100 µM

**Q.** And the TGI [26]?
**A.** > 100 µM

**Q.** What about the GI50 [27] of the same compound?
**A.** 24.8 µM

**Q.** And the TGI [27]?
**A.** > 100 µM

**Q.** And the GI50 [28]?
**A.** 1.46 µM

**Q.** And the TGI [28]?
**A.** 2.82 µM

**Q.** And the GI50 [29]?
**A.** > 100 µM

**Q.** And the TGI [29]?
**A.** > 100 µM

**Q.** And the GI50 [30]?
**A.** > 100 µM

**Q.** What about the TGI [30] of the same compound?
**A.** > 100 µM

**Q.** What about the GI50 [31] of the same compound?
**A.** > 100 µM

**Q.** And the TGI [31]?
**A.** > 100 µM

**Q.** And the GI50 [32]?
**A.** 6.16 µM

**Q.** And the TGI [32]?
**A.** > 100 µM

**Q.** What about the GI50 [33] of the same compound?
**A.** 25.9 µM

**Q.** And the TGI [33]?
**A.** > 100 µM

**Q.** And the GI50 [34]?
**A.** 78.3 µM

**Q.** What about the TGI [34] of the same compound?
**A.** > 100 µM

**Q.** And the GI50 [35]?
**A.** > 100 µM

**Q.** What about the TGI [35] of the same compound?
**A.** > 100 µM

**Q.** And the GI50 [36]?
**A.** > 100 µM

**Q.** And the TGI [36]?
**A.** > 100 µM

**Q.** And the GI50 [37]?
**A.** > 100 µM

**Q.** And the TGI [37]?
**A.** > 100 µM

**Q.** And the GI50 [38]?
**A.** > 100 µM

**Q.** What about the TGI [38] of the same compound?
**A.** > 100 µM

**Q.** What about the GI50 [39] of the same compound?
**A.** > 100 µM

**Q.** What about the TGI [39] of the same compound?
**A.** > 100 µM

**Q.** What about the GI50 [40] of the same compound?
**A.** 97.5 µM

**Q.** And the TGI [40]?
**A.** > 100 µM

**Q.** What about the GI50 [41] of the same compound?
**A.** > 100 µM

**Q.** What about the TGI [41] of the same compound?
**A.** > 100 µM

**Q.** What about the GI50 [42] of the same compound?
**A.** 33.2 µM

**Q.** And the TGI [42]?
**A.** > 100 µM

**Q.** What about the GI50 [43] of the same compound?
**A.** 97.1 µM

**Q.** What about the TGI [43] of the same compound?
**A.** > 100 µM

**Q.** What about the GI50 [44] of the same compound?
**A.** > 100 µM

**Q.** What about the TGI [44] of the same compound?
**A.** > 100 µM

**Q.** And the GI50 [45]?
**A.** > 100 µM

**Q.** What about the TGI [45] of the same compound?
**A.** > 100 µM

**Q.** What about the GI50 [46] of the same compound?
**A.** 62.5 µM

**Q.** What about the TGI [46] of the same compound?
**A.** > 100 µM

**Q.** And the GI50 [47]?
**A.** > 100 µM

**Q.** What about the TGI [47] of the same compound?
**A.** > 100 µM

**Q.** And the GI50 [48]?
**A.** > 100 µM

**Q.** What about the TGI [48] of the same compound?
**A.** > 100 µM

**Q.** And the GI50 [49]?
**A.** > 100 µM

**Q.** What about the TGI [49] of the same compound?
**A.** > 100 µM

**Q.** What about the GI50 [50] of the same compound?
**A.** > 100 µM

**Q.** What about the TGI [50] of the same compound?
**A.** > 100 µM

**Q.** And the GI50 [51]?
**A.** 1.71 µM

**Q.** What about the TGI [51] of the same compound?
**A.** 4.65 µM

**Q.** And the GI50 [52]?
**A.** 43.4 µM

**Q.** And the TGI [52]?
**A.** > 100 µM

**Q.** What about the GI50 [53] of the same compound?
**A.** > 100 µM

**Q.** And the TGI [53]?
**A.** > 100 µM

**Q.** And the GI50 [54]?
**A.** 61.4 µM

**Q.** What about the TGI [54] of the same compound?
**A.** > 100 µM

**Q.** And the GI50 [55]?
**A.** 63.9 µM

**Q.** What about the TGI [55] of the same compound?
**A.** > 100 µM

**Q.** What about the GI50 [56] of the same compound?
**A.** > 100 µM

**Q.** What about the TGI [56] of the same compound?
**A.** > 100 µM

**Q.** And the GI50 [57]?
**A.** 36.5 µM

**Q.** What about the TGI [57] of the same compound?
**A.** > 100 µM

**Q.** And the GI50 [58]?
**A.** 87.1 µM

**Q.** What about the TGI [58] of the same compound?
**A.** > 100 µM
